Source: patent US9115145B2, “Tocotrienol derivatives and associated methods” (FIRST TECH INTERNATIONAL LIMITED, priority 2011, dated 2015)

Experiments:
[1] = test system: MCF7 human breast cancer cell line; assay: MTT assay of MCF7 cells; assay type: cell-based; conditions: media containing 1% fetal bovine serum
Procedure: MDA-MB-231 and MCF7 cells were plated at a density of 8×10^3 cells/well and 10^4 cells/well in 96-well culture plates, respectively. The compounds were fed in serum free media containing 5% and 1% fetal bovine serum for MDA-MB-231 and MCF7 cells, respectively.

[2] = test system: MDA-MB-231 human breast cancer cells; assay: Wound-healing assay (cell migration); assay type: cell-based; conditions: MDA-MB-231, wound-healing assay, dose response; read-out: IC50 antimigratory activity
Outline: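 Scratch wounds made in confluent (>95%) monolayers, then compounds added in fresh medium (5 μM in screening; concentration range in follow-up), DMSO as negative control, triplicate. After 24 h serum-starved at 37 °C, cells fixed and Diff-Quick stained. Migrated cells counted per 400× field (≥3 fields); IC50 from concentration range.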

CC(C)=CCC/C(C)=C/CC/C(C)=C/CC[C@]1(C)CCc2cc(O)c(C)c(C)c2O1 [Compound 1, γ-tocotrienol, reference compound]
IC50 [1]: 7.1 µM
IC50 [2]: > 40 µM
